The half-life is the time needed for the level to fall by half in the phase considered. Read a low half-life as fast loss. By Cmax is commonly meant the maximum level reached in the sampled fluid or tissue.

Marks after values point to notes of the source that are not given here. Where only a bound is given, the exact number is not on record here.

Common to all, as to type: in vivo, humans
Data set [1] in a line: Faecal recovery after 500 mg oral bolus of 13C5-C3G. As to conditions: faeces, 500 mg oral 13C5-C3G; for Recovery 24–48 h / Recovery 6–24 h: mean ± SEM; for Recovery 0–6 h: 0–6 h (only 2 participants provided voids). The method, then: The study was conducted at the Clinical Research and Trials Unit at the University of East Anglia according to the principles expressed in the Declaration of Helsinki and was approved by the Cambridgeshire 3 Research Ethics Committee (REC ref: 10/H0306/42) and registered at clinicaltrials.gov as NCT01106729.
Sample extracts (5 μL) were injected onto a Kinetex PFP column (Phenomonex) and separated using an Agilent 1200 series HPLC with a QTrap 4000 linear ion trap mass spectrometer (ABSciex, Warrington, UK). […] Metabolite identification was performed by multiple reaction monitoring (MRM) optimized for the detection of pure standards with m/z of the parent and daughter fragments adjusted to +2,+3,+5 amu to allow identification of the ^13C-labelled metabolites derived from the B-ring, A-ring or the parent structure respectively. […] The HPLC-ESI-MS/MS method was validated for linearity and precision across all metabolites.
Pharmacokinetic parameters were established for each individual analyte and presented as mean ± SEM. Urine samples collected during the first 6 h post-bolus were grouped together to the nearest hour time point (i.e. samples were not pooled but individual concentrations were averaged post-quantification) for graphical representation and to calculate total cumulative recovery. The concentration of metabolites was converted to amount recovered from urine by accounting for the molecular weight of the individual ^13C-labelled metabolites and the volume of the individual participants void and averaged across participants. […] Urine and faecal recovery amounts are presented as mean ± SEM (n = 8), unless otherwise stated.

Data set [2] in a line: Urinary elimination/recovery after 500 mg oral bolus of 13C5-C3G. The note with it: urine, single 500 mg oral 13C5-C3G; for Tmax: male, human, po, 500 mg, urine collection interval, read-out: Time at maximum concentration; for Total recovery: 0-48 h; for Total recovery / Maximum concentration: mean ± SEM. The protocol: (§1) A detailed description of the clinical design was previously published ([Czank et al., 2013]). Briefly, a single 500 mg oral bolus dose of isotopically labelled C3G (^13C5-C3G) was fed to eight healthy male participants (body mass index, 18.5–30.5 kg·m^–2; aged 18–45 years) after an overnight fast (>8 h). Participants provided blood (baseline, 0.5, 1, 2, 4, 6, 24, 48 h), urine (individual voids between 0 and 6 h, total voids between 6–24 and 24–48 h), breath (baseline, 0.5, 1, 2, 4, 6, 24, 48 h) and faecal samples (all voids between 0–6, 6–24 and 24–48 h). The study was conducted at the Clinical Research and Trials Unit at the University of East Anglia according to the principles expressed in the Declaration of Helsinki and was approved by the Cambridgeshire 3 Research Ethics Committee (REC ref: 10/H0306/42) and registered at clinicaltrials.gov as NCT01106729.
(§2) Serum, urine and faecal samples were extracted by SPE and analysed by HPLC-ESI-MS/MS as recently described ([Czank et al., 2013]). The extraction efficiency was established as 87 ± 11% (coefficient of variation, CV; 6.8 ± 0.7%) for serum, 88 ± 18% (CV, 7.9 ± 0.8%) for urine and 81 ± 21% (CV, 14.1 ± 1.2%) for faeces (n = 3 replicates for each analyte). Sample extracts (5 μL) were injected onto a Kinetex PFP column (Phenomonex) and separated using an Agilent 1200 series HPLC with a QTrap 4000 linear ion trap mass spectrometer (ABSciex, Warrington, UK). […] Metabolite identification was performed by multiple reaction monitoring (MRM) optimized for the detection of pure standards with m/z of the parent and daughter fragments adjusted to +2,+3,+5 amu to allow identification of the ^13C-labelled metabolites derived from the B-ring, A-ring or the parent structure respectively. Metabolites were confirmed on the basis of retention time (using authentic and synthesized standards where possible) and three or more ion transitions. The HPLC-ESI-MS/MS method was validated for linearity and precision across all metabolites. Six point standard curves ranging from 1.25 to 20 μM were constructed from analytical standards and injected six times. The precision was established as 1.4–11.0% and linearity of the standard curves was established as r^2 = 0.991–1.000 (CV, 0.2%) across the identified metabolites.
(§3) Pharmacokinetic modelling of metabolites in the serum was performed with the PKSolver ‘add-on’ for Excel 2010 (Microsoft, […], USA) ([Zhang et al., 2010]) using non-compartmental analysis with the AUC calculated using the trapezoidal rule. Pharmacokinetic parameters were established for each individual analyte and presented as mean ± SEM. Urine samples collected during the first 6 h post-bolus were grouped together to the nearest hour time point (i.e. samples were not pooled but individual concentrations were averaged post-quantification) for graphical representation and to calculate total cumulative recovery. The concentration of metabolites was converted to amount recovered from urine by accounting for the molecular weight of the individual ^13C-labelled metabolites and the volume of the individual participants void and averaged across participants. Recovery of metabolites in the faeces was established from the molecular weight of the ^13C-labelled metabolite and the weight of the individual participants void adjusting for faecal water content as previously described ([Czank et al., 2013]). Urine and faecal recovery amounts are presented as mean ± SEM (n = 8), unless otherwise stated.

Data set [3] is described as follows: Serum pharmacokinetics after 500 mg oral bolus of 13C5-C3G (HPLC-ESI-MS/MS, non-compartmental analysis). As to conditions: for half-life / t1/2: serum elimination half-life; for Cmax: healthy men, mean ± SEM of participants in whom detected; for AUC(0-t): read-out: AUC0-48. The method, then: as §1, §2, §3
Where [4] appears, read: male, human, serum, po, 500 mg, single 500 mg oral 13C5-C3G, mean ± SEM.
Where [5] appears, read: male, human, serum, po, 500 mg, serum, single 500 mg oral 13C5-C3G, mean ± SEM, read-out: tmax.
The mark [6] stands for this setting: male, human, serum, po, 500 mg, single 500 mg oral 13C5-C3G.
Setting [7] is: male, human, serum, trapezoidal rule, single 500 mg oral 13C5-C3G, mean ± SEM.
[8] abbreviates: single 500 mg oral 13C5-C3G, mean ± SEM.
Where [9] appears, read: serum, single 500 mg oral 13C5-C3G, mean ± SEM.

Take `O=C(O)c1ccc(O)cc1`: in data set [1], the “Recovery 24–48 h” value is 22.0 ± 11.6 ^g μg. In addition, in data set [2], the Tmax fell in the range of 1 to 2 h, the Total recovery was determined as 13.2 ± 3.7 µg and the Maximum concentration came to 49 ± 11 nM.

`O=C(O)c1cccc(O)c1O` [2,3-Dihydroxybenzoic acid]: in data set [1], the “Recovery 24–48 h” value was 440.4 ± 381.8 ^h μg.

For the compound `COc1ccc(C(=O)O)c(O)c1` [2-Hydroxy-4-methoxybenzoic acid], in data set [1], the “Recovery 6–24 h” value is listed as 1.4 ^b μg and the “Recovery 24–48 h” value is 273.3 ± 272.7 ^h μg. Moreover, in data set [2], the Tmax lay within 3 to 4 h, the Total recovery was found to be 64.6 µg and the Maximum concentration stood at 172 nM.

With `O=Cc1ccc(O)c(O)c1` [3,4-Dihydroxybenzaldehyde], in data set [1], the “Recovery 6–24 h” value is 3.4 ± 3.8 ^h μg and the “Recovery 24–48 h” value is 5.1 ± 1.8 ^i μg. Besides, in data set [2], the Tmax was 0 to 1 h, the Total recovery is 6.3 ± 2.6 µg and the Maximum concentration came out at 24 ± 7 nM. In data set [2] (listed as 3,4-dihydroxybenzaldehyde), this compound had a Maximum concentration of 24 nM.

With `O=C(O)Cc1ccc(O)c(O)c1` [3,4-Dihydroxyphenylacetic acid], in data set [1], the “Recovery 0–6 h” value is reported as 2.0 ^b μg, the “Recovery 6–24 h” value is given as 10.1 ± 4.0 ^e μg and the “Recovery 24–48 h” value is 12.8 ± 7.5 ^c μg. In data set [2], the Tmax lay within 24 to 48 h, the Total recovery was 28.0 µg and the Maximum concentration came out at 82 nM.

Consider `O=Cc1ccc(O)cc1` [4-Hydroxybenzaldehyde], for which, in data set [1], the “Recovery 6–24 h” value is reported as 0.8 ± 0.8 ^h μg and the “Recovery 24–48 h” value is listed as 0.1 ^b μg. In addition, in data set [2], the Tmax is 5 to 6 h, the Total recovery was 10.0 ± 9.0 µg and the Maximum concentration was 97 ± 94 nM. In data set [3] (setting [4]), the half-life is 17.9 ± 8.8 h. Further, the Tmax in data set [3] (setting [5]) worked out at 5.6 ± 3.1 h. The compound further registered a Cmax in data set [3] (setting [6]) of 667 ± 653 nM. In addition, the AUC(0-t) in data set [3] (setting [7]) is 0.663 ± 0.505 µM·h.

For the compound `O=C(O)Cc1ccc(O)cc1` [4-Hydroxyphenylacetic acid], in data set [1], the “Recovery 6–24 h” value is given as 7.3 ^b μg and the “Recovery 24–48 h” value is given as 55.4 ^b μg. Also, in data set [2], the Tmax lay in the range of 4 to 5 h, the Total recovery amounted to 50.0 ± 2.0 µg and the Maximum concentration stood at 391 ± 113 nM.

For `COc1ccc(C=O)cc1` [4-Methoxybenzaldehyde], in data set [1], the “Recovery 6–24 h” value was 20.7 ^b μg.

Take `COc1cc(/C=C/C(=O)O)ccc1O` [A-ring-derived ferulic acid]: the “Recovery 6–24 h” value in data set [1] worked out at 469.7 µg. The t1/2 in data set [3] (setting [8]) was 96.5 ± 73.4 h.

Take `O=C(O)c1ccc(OC2OC(C(=O)O)C(O)C(O)C2O)cc1` (stereo not shown) [Benzoic acid-4-glucuronide]: in data set [1], the “Recovery 0–6 h” value is 1.5 ^b μg, the “Recovery 6–24 h” value is recorded as 6.8 ± 3.0 ^c μg and the “Recovery 24–48 h” value is on record as 14.8 ± 8.0 ^i μg. Moreover, in data set [2], the Tmax was 4 to 5 h, the Total recovery was 53.1 ± 18.1 µg and the Maximum concentration was determined as 129 ± 47 nM. The same compound had a half-life in data set [3] (setting [4]) of 17.1 ± 3 h. The Tmax in data set [3] (setting [5]) was 10.9 ± 3.4 h. The Cmax in data set [3] (setting [6]) turned out to be 74 ± 20 nM. For the same compound, the AUC(0-t) in data set [3] (setting [7]) was determined as 1.47 ± 0.489 µM·h.

For `O=C(O)/C=C/c1ccc(O)c(O)c1` [Caffeic acid], in data set [1], the “Recovery 6–24 h” value was 25.2 ^b μg and the “Recovery 24–48 h” value was 354.6 ± 125.0 ^h μg.

With `COc1cc(/C=C/C(=O)O)ccc1O` [Ferulic acid], the “Recovery 6–24 h” value in data set [1] (listed as B-ring-derived ferulic acid) came out at 2373.1 µg. Further, the Tmax is around 8 h in data set [3] (setting [5]) and 8.2 ± 4.1 h in data set [3] (setting [9]). Moreover, the AUC(0-t) in data set [3] (setting [7]) amounted to 1.82 ± 1.05 µM·h. Besides, in data set [3] (serum and urine samples), the “time of detection after consumption” value is reported as at most 4 h.

With `O=C(O)CNC(=O)c1ccccc1` [Hippuric acid], in data set [1], the “Recovery 6–24 h” value is 12.0 ± 11.4 ^g μg and the “Recovery 24–48 h” value is 27.5 ± 27.4 ^h μg. In data set [2], the Tmax is 6 to 24 h, the Total recovery was 2415.6 ± 2223.0 µg and the Maximum concentration came to 5417 ± 4906 nM. Moreover, the Maximum concentration in data set [2] (listed as hippuric acid) is 5417 nM. Besides, in data set [3] (setting [4]), the half-life was 95.6 ± 77.8 h. For the same compound, the Tmax in data set [3] (setting [5]) is around 16 h. This compound also gave a Cmax in data set [3] (setting [6]) of 1960 ± 1390 nM. Moreover, in data set [3] (setting [9]), the Tmax amounted to 15.7 ± 4.1 h.

Consider `COc1ccc(C(=O)O)cc1OC1OC(C(=O)O)C(O)C(O)C1O` (stereo not shown) [IsoVA-3-glucuronide], for which, in data set [1], the “Recovery 0–6 h” value was 1.8 ^b μg, the “Recovery 6–24 h” value is recorded as 1.3 ^b μg and the “Recovery 24–48 h” value is recorded as 12.7 ± 10.9 ^h μg. In data set [2], this compound showed a Total recovery of 526.8 ± 92.2 µg and a Maximum concentration of 699 ± 90 nM. In addition, the t1/2 in data set [3] (setting [8]) turned out to be 1.6 ± 0.2 h. For the same compound, the Cmax in data set [3] (serum, single 500 mg oral 13C5-C3G) was 35 ± 5 nM. Further, in data set [3] (setting [9]), the Tmax is recorded as 4.3 ± 0.6 h. Also, the AUC0-48 in data set [3] (serum, trapezoidal rule, single 500 mg oral 13C5-C3G, mean ± SEM) worked out at 0.103 ± 0.013 µM·h.

As for `COc1ccc(C(=O)O)cc1OS(=O)(=O)O` [IsoVA-3-sulfate], in data set [1], the “Recovery 6–24 h” value was 0.6 ± 0.3 ^h μg and the “Recovery 24–48 h” value is reported as 176.1 ± 174.7 ^h μg. In data set [2], this compound returned a Total recovery of 183.2 ± 93.1 µg and a Maximum concentration of 822 ± 557 nM.

For the compound `COC(=O)c1ccc(O)c(OC)c1` [Methyl vanillate], in data set [1], the “Recovery 6–24 h” value was 35.1 ^b μg.

On to `O=C(O)c1ccc(OS(=O)(=O)O)c(O)c1` [PCA-4-sulfate], for which, in data set [1], the “Recovery 6–24 h” value was 23.0 ± 18.1 ^g μg and the “Recovery 24–48 h” value was 12.0 ± 10.2 ^g μg. Moreover, in data set [2], the Total recovery was 492.4 ± 193.0 µg and the Maximum concentration came to 1244 ± 333 nM.

Turning to `COc1cc(-c2[o+]c3cc(O)cc(O)c3cc2OC2OC(CO)C(O)C(O)C2O)ccc1O` (stereo not shown) [Peonidin-3-glucoside], in data set [2], the Tmax lay within 1 to 2 h, the Total recovery was 22.9 ± 10.6 µg and the Maximum concentration amounted to 76 ± 43 nM.

As for `COc1cc(C(=O)O)ccc1OS(=O)(=O)O` [VA-4-sulfate], in data set [1], the “Recovery 0–6 h” value was 0.6 ^b μg and the “Recovery 24–48 h” value is 69.0 ± 39.1 ^g μg. In data set [2], this compound gave a Total recovery of 449.1 ± 112.4 µg and a Maximum concentration of 1682 ± 899 nM.
